# Experimental data taken from patent US11716994B2, “Combinations of Yersinia entomophaga and pesticides or other substances” (priority 2017, dated 2023).
# Where “and” joins values, the source holds several entries; their conditions need not be identical. Identical values can stand only once. Like-named read-outs stand apart in the source and are kept apart here.
# Tests used:
# Yersinia entomophaga = assay: CFU counts after exposure of Yersinia entomophaga to insecticides; type: cell-based; conditions: 1 hour contact
# Description: To test combinations of Yersinia entomophaga and pesticides for their ability to produce a pesticidal effect, or an effect on plant growth or yield, we first put various insecticides in contact with Yersinia to identify insecticides that had minimal toxicity to Yersinia entomophaga. The logic was that, if Yersinia entomophaga is to function well in combination with a chemical insecticide, the chemical insecticide would ideally have low or no effect on the ability of Yersinia entomophaga to survive, grow and/or to function.
# To perform this study, we selected amounts of various insecticides based on the percent of the specific insecticide in the insecticide composition obtained from a manufacturer. We also considered the application rate of the particular insecticide, as recommended by the manufacturer. […] Generally, the 1× amount was considered possibly the lowest amount of insecticide that may be considered as an effective amount for use in the combinations disclosed herein. For each insecticide, we also used a higher amount of insecticide (generally a 5× or 10× amount).
# The 1× and 5×/10× amounts of each insecticide were added to tubes along with 1 ml of ethyl acetate. The tubes were mixed until the insecticides dissolved. The tubes were left open in a fume hood overnight to allow the ethyl acetate to evaporate. The insecticide remained in the tubes, as a solid coat on the interior surface of the tubes.
# A growing culture of Yersinia entomophaga, grown in LB medium, was diluted and 1 ml of the diluted culture was added to each tube containing the dried insecticide. The tubes were mixed and then left on the bench top for 1 hour. Then, 100 μl from each tube was plated onto LB plates in triplicate in CFU assays. Plates were incubated at 25° C. for 48 hours and colonies were counted.
# cabbage looper [1] = test system: cabbage looper
# fall armyworm [2] = test system: fall armyworm
# Procedure: To produce cell free filtrates, cultures of Yersinia entomophaga grown in LB medium were centrifuged at 11,448 (g) for 10 minutes. The supernatant was decanted from the centrifuged pellet and filtered through a 0.22 μm filter. Assays were performed to determine concentrations of Yen-TC (toxin complex) using ELISA, and chitinase by measuring chitinase activity on specific substrates. […] This was done to estimate relative potency of the cell free filtrates. Insects were first pre-screened with a range of dilutions of cell free filtrates to select a concentration that provided moderate activity. […] Based on these initial screens, undiluted cell free filtrate was used for cabbage looper, fall armyworm, black cutworm, and Colorado potato beetle.
# Cabbage leaf disks were dipped in either acetone (controls and Y. entomophaga alone treatments) or fipronil (Sigma 46451) at 12 mg/L in acetone. These were set to dry for 1 hr. […] After the cabbage disks had dried for 1 hr, a single 3rd instar fall armyworm was added to each individual cabbage disk. A total of 20 insects were evaluated for each treatment. Insects were observed daily and scored as live or dead.
# Cabbage leaf disks were dipped in either acetone (controls and Y. entomophaga alone treatments) or esfenvalerate (Sigma 46277) at 56 mg/L in acetone. These were set to dry for 1 hr. […] After the cabbage disks had dried for 1 hr, a single 3rd instar fall armyworm was added to each individual cabbage disk. A total of 20 insects were evaluate for each treatment. Insects were observed daily and scored as live or dead.
# cabbage looper [3] = test system: cabbage looper; remark: listed apart in the source
# black cutworm [4] = test system: black cutworm
# Procedure: (§2) To produce cell free filtrates, cultures of Yersinia entomophaga grown in LB medium were centrifuged at 11,448 (g) for 10 minutes. The supernatant was decanted from the centrifuged pellet and filtered through a 0.22 μm filter. Assays were performed to determine concentrations of Yen-TC (toxin complex) using ELISA, and chitinase by measuring chitinase activity on specific substrates. […] This was done to estimate relative potency of the cell free filtrates. Insects were first pre-screened with a range of dilutions of cell free filtrates to select a concentration that provided moderate activity. […] Based on these initial screens, undiluted cell free filtrate was used for cabbage looper, fall armyworm, black cutworm, and Colorado potato beetle. […] In each of the Examples below, this is expressed as 1%.
# Cabbage leaf disks were dipped in either acetone (controls and Y. entomophaga alone treatments) or in indoxacarb (Sigma 33969) at 0.53 mg/L in acetone. These were set to dry for 1 hr. […] After the cabbage disks had dried for 1 hr, a single 2nd instar black cutworm was added to each individual cabbage disk. A total of 20 insects were evaluate for each treatment. Insects were observed daily and scored as live or dead.
# Cabbage leaf disks were dipped in either acetone (controls and Y. entomophaga alone treatments) or in flubendiamide (Sigma 32801) at 0.59 mg/L in acetone. These were set to dry for 1 hr. […] After the cabbage disks had dried for 1 hr, a single 2nd instar black cutworm was added to each individual cabbage disk. A total of 20 insects were evaluate for each treatment. Insects were observed daily and scored as live or dead.
# fall armyworm [5] = assay: Leaf disk mortality assay, Y. entomophaga cells with chemical insecticides; conditions: for % Mortality (3DAT) / LT50 (95% confidence intervals) in days: 4th instar; for % Mort. Chem.: fall armyworm, Esfenvalerate 56 mg/L
# black cutworm [6] = assay: as above; conditions: for % Mort. Chem. / LT50 Chem.: black cutworm
# diamondback moth = assay: whole plant or invertebrate; conditions: thiacloprid 100 mg/L; for mortality at 100 µg/mL: Plutella xylostella, foliar, Abbott's corrected
# Description: (§1) These were set to dry for 1 hr.
# as §1
# These were set to dry for 1 hr. Cabbage disks were then dipped in either 1% Luria broth (LB) media solution (controls and thiacloprid alone treatments) or in 1% cell free filtrate from a culture Y. entomophaga isolate O24G3R (Y. entomophaga alone or in combination with thiacloprid treatments).
# Colorado potato beetle [7] = conditions: for LT50 (95% confidence intervals): 3rd instar Colorado potato beetle, O43NEW undiluted filtrate, alone or combined; for LT50 Chem. / % Mort. Chem.: Colorado potato beetle; for % Mort. Chem.: 6 DAT
# Procedure: as §2
# Tomato leaf disks were dipped in either acetone (controls and Y. entomophaga alone treatments) or thiacloprid (Sigma 37905) at 1 mg/L in acetone. These were set to dry for 1 hr. […] After the tomato disks had dried for 1 hr, a single 3rd instar Colorado potato beetle was added to each individual cabbage disk. A total of 20 insects were evaluate for each treatment. Insects were observed daily and scored as live or dead.
# Colorado potato beetle [8] = assay: Tomato leaf disk mortality assay, Y. entomophaga cells with chemical insecticides; conditions: for % Mort. Chem. / LT50 Chem.: Colorado potato beetle; for mortality at 1 µg/mL / mortality at 0.56 µg/mL: Leptinotarsa decemlineata, in Solanum lycopersicum, foliar
# western flower thrips = assay: Leaf disk mortality assay, Y. entomophaga cells with chemical insecticides; type: in vivo; conditions: for mortality at 100 µg/mL: Frankliniella occidentalis, foliar; for mortality at 100 µg/mL / LT50 (95% confidence intervals) in days: adults, imidacloprid 100 mg/L; for % Mort. Chem.: Imidacloprid 100 mg/L
# Procedure: These were set to dry for 1 hr. After the disks had dried, two were placed in individual cups and 12 adult western flower thrips were added. This experiment was repeated and a total of 24 insects were evaluated for each treatment.
# [9] = 3rd instar, esfenvalerate 5.6 mg/L, isolate O24G3R 1×10^4 cfu/mL
# [10] = 3rd instar, esfenvalerate 56 mg/L, isolate O43NEW 1×10^6 cfu/mL
# [11] = esfenvalerate 56 mg/L, isolate O23ZMJ 1×10^5 cfu/mL
# [12] = esfenvalerate 56 mg/L, isolate O24G3R 1×10^5 cfu/mL
# [13] = esfenvalerate 56 mg/L, isolate O348UX 1×10^5 cfu/mL
# [14] = 3rd instar, esfenvalerate 5.6 mg/L, isolate O23ZMJ 1×10^5 cfu/mL
# [15] = 3rd instar, esfenvalerate 5.6 mg/L, isolate O24G3R 1×10^5 cfu/mL
# [16] = 3rd instar, esfenvalerate 5.6 mg/L, isolate O43NEW 1×10^5 cfu/mL
# [17] = 3rd instar, esfenvalerate 5.6 mg/L, isolate O348UX 1×10^5 cfu/mL
smiles,measurement,setting,value
CC(C)[C@H](C(=O)O[C@H](C#N)c1cccc(Oc2ccccc2)c1)c1ccc(Cl)cc1 [Esfenvalerate],Average CFU,Yersinia entomophaga; 0.8 mg insecticide,258 CFU
same,Average CFU,Yersinia entomophaga; 5.3 mg insecticide,0 CFU
same,% Mort. Chem.,"cabbage looper [1]; cabbage looper, Esfenvalerate 0.56 mg/L, 7 DAT",37%
same,LT50 Chem.,"cabbage looper [1]; cabbage looper, Esfenvalerate alone 0.56 mg/L",5.63 days
same,% Mortality (2DAT),cabbage looper [1]; in vivo,5%
same,LT50 (95% confidence intervals) in days,cabbage looper [1]; in vivo,5.63 (5.19-6.11) days
same,LT50 Chem.,"fall armyworm [2]; Fall armyworm, esfenvalerate 56 mg/L",9.84 days
same,% Mort. Chem.,"fall armyworm [2]; fall armyworm, Esfenvalerate 56 mg/L, 5 DAT",40%
same,% Mortality (5DAT),fall armyworm [2]; in vivo,40%
same,% Mortality (7DAT),fall armyworm [2]; in vivo,45%
same,LT50 (95% confidence intervals),fall armyworm [2]; in vivo,9.84 days
same,LT50 Chem.,"cabbage looper [3]; Cabbage Looper, esfenvalerate 0.56 mg/L",5.23 days
same,% Mort. Chem.,"cabbage looper [3]; Cabbage Looper, esfenvalerate 0.56 mg/L, 5 DAT",40%
same,% Mortality (5DAT),cabbage looper [3]; in vivo,40%
same,% Mortality (6DAT),cabbage looper [3]; in vivo,70%
same,% Mortality (8DAT),cabbage looper [3]; in vivo,83%
same,LT50 (95% confidence intervals) in days,cabbage looper [3]; in vivo,5.23 (4.69-5.79) days
same,LT50 Chem.,"black cutworm [4]; Black cutworm, esfenvalerate 5.6 mg/L",3.68 days
same,% Mort. Chem.,"black cutworm [4]; Black cutworm, esfenvalerate 5.6 mg/L, 6 DAT",84%
same,% Mortality (6DAT),black cutworm [4]; in vivo,84%
same,LT50 (95% confidence intervals),black cutworm [4]; in vivo,3.68 days
same,% Mortality (6DAT),fall armyworm [5]; [9],0%
same,LT50 (95% confidence intervals),fall armyworm [5]; [9],20.00 days
same,% Mortality (5DAT),fall armyworm [5]; [10],5%
same,% Mortality (7DAT),fall armyworm [5]; [10],5%
same,% Mortality (9DAT),fall armyworm [5]; [10],11%
same,% Mortality (11DAT),fall armyworm [5]; [10],6%
same,LT50 (95% confidence intervals),fall armyworm [5]; [10],13.6 days
same,% Mortality (3DAT),fall armyworm [5]; [11],25%
same,LT50 (95% confidence intervals) in days,fall armyworm [5]; [11],3.66 (3.28-4.09) days
same,% Mortality (3DAT),fall armyworm [5]; [12],25%
same,LT50 (95% confidence intervals) in days,fall armyworm [5]; [12],3.66 (3.28-4.09) days
same,% Mortality (3DAT),fall armyworm [5]; [13],25%
same,LT50 (95% confidence intervals) in days,fall armyworm [5]; [13],3.66 (3.28-4.09) days
same,% Mort. Chem.,fall armyworm [5]; 3 DAT (row with O23ZMJ),25%
same,% Mort. Chem.,fall armyworm [5]; 3 DAT (row with O24G3R 1 × 10^5),25%
same,% Mort. Chem.,fall armyworm [5]; 3 DAT (row with O348UX),25%
same,% Mort. Chem.,fall armyworm [5]; 5 DAT,5%
same,% Mort. Chem.,fall armyworm [5]; 6 DAT,0%
same,% Mortality (3DAT),black cutworm [6]; [14],42%
same,% Mortality (4DAT),black cutworm [6]; [14],61%
same,LT50 (95% confidence intervals) in days,black cutworm [6]; [14],3.40 (3.03-3.81) days
same,% Mortality (5DAT),black cutworm [6]; [15],50%
same,% Mortality (6DAT),black cutworm [6]; [15],56%
same,% Mortality (7DAT),black cutworm [6]; [15],69%
same,LT50 (95% confidence intervals) in days,black cutworm [6]; [15],5.29 (4.75-5.87) days
same,% Mortality (3DAT),black cutworm [6]; [16],40%
same,% Mortality (4DAT),black cutworm [6]; [16],45%
same,LT50 (95% confidence intervals) in days,black cutworm [6]; [16],3.97 (3.60-4.38) days
same,% Mortality (5DAT),black cutworm [6]; [17],50%
same,% Mortality (6DAT),black cutworm [6]; [17],56%
same,% Mortality (7DAT),black cutworm [6]; [17],69%
same,LT50 (95% confidence intervals),black cutworm [6]; [17],5.29 days
same,% Mort. Chem.,"black cutworm [6]; Esfenvalerate 1.87 mg/L, 5 DAT (row with O24G3R)",50%
same,% Mort. Chem.,"black cutworm [6]; Esfenvalerate 1.87 mg/L, 5 DAT (row with O348UX)",50%
same,% Mort. Chem.,"black cutworm [6]; Esfenvalerate 5.6 mg/L, 4 DAT (row with O23ZMJ)",61%
same,% Mort. Chem.,"black cutworm [6]; Esfenvalerate 5.6 mg/L, 4 DAT (row with O43NEW)",45%
same,LT50 Chem.,black cutworm [6]; Esfenvalerate alone 1.87 mg/L,5.29 days
same,LT50 Chem.,black cutworm [6]; Esfenvalerate alone 5.6 mg/L,3.97 days and 3.40 days
N#C/N=C1\SCCN1Cc1ccc(Cl)nc1 [Thiacloprid],LT50 (95% confidence intervals),"diamondback moth; 2nd instar diamondback moth, O24G3R filtrate 1%, alone or combined",12.58 days
same,LT50 Chem.,diamondback moth; Diamondback moth,12.58 days
same,% Mort. Chem.,"diamondback moth; Diamondback moth, 7 DAT",17%
same,mortality at 100 µg/mL,"diamondback moth; 96 h, read-out: % Mortality (4DAT), 2nd instar diamondback moth, O24G3R filtrate 1%, alone or combined, 4 DAT",5%
same,mortality at 100 µg/mL,"diamondback moth; 120 h, read-out: % Mortality (5DAT), 2nd instar diamondback moth, O24G3R filtrate 1%, alone or combined, 5 DAT",10%
same,mortality at 100 µg/mL,"diamondback moth; 144 h, read-out: % Mortality (6DAT), 2nd instar diamondback moth, O24G3R filtrate 1%, alone or combined, 6 DAT",10%
same,mortality at 100 µg/mL,"diamondback moth; 168 h, read-out: % Mortality (7DAT), 2nd instar diamondback moth, O24G3R filtrate 1%, alone or combined, 7 DAT",17%
same,mortality at 100 µg/mL,"diamondback moth; 288 h, read-out: % Mortality (12DAT), 2nd instar diamondback moth, O24G3R filtrate 1%, alone or combined, 12 DAT",27%
same,mortality at 100 µg/mL,"diamondback moth; 312 h, read-out: % Mortality (13DAT), 2nd instar diamondback moth, O24G3R filtrate 1%, alone or combined, 13 DAT",33%
same,LT50 (95% confidence intervals),Colorado potato beetle [7]; thiacloprid 1 mg/L,12.71 days
same,LT50 Chem.,Colorado potato beetle [7]; thiacloprid 1 mg/L,12.71 days
same,% Mort. Chem.,Colorado potato beetle [7]; thiacloprid 1 mg/L,13%
same,LT50 (95% confidence intervals) in days,"Colorado potato beetle [8]; 2nd instar larva, thiacloprid 1 mg/L, isolate O43NEW 1×10^6 cfu/mL",6.99 (6.44-7.58) days
same,% Mort. Chem.,"Colorado potato beetle [8]; Thiacloprid 1 mg/L, 5 DAT",26%
same,LT50 Chem.,Colorado potato beetle [8]; Thiacloprid alone 1 mg/L,6.99 days
same,mortality at 1 µg/mL,"Colorado potato beetle [8]; 96 h, read-out: % Mortality (4DAT)",26%
same,mortality at 1 µg/mL,"Colorado potato beetle [8]; 120 h, read-out: % Mortality (5DAT)",26%
O=[N+]([O-])NC1=NCCN1Cc1ccc(Cl)nc1 [Imidacloprid],mortality at 100 µg/mL,"western flower thrips; 24 h, isolate O333A4 1×10^5 cfu/mL, read-out: % Mortality (1DAT)",16%
same,mortality at 100 µg/mL,"western flower thrips; 48 h, isolate O43NEW 1×10^5 cfu/mL, read-out: % Mortality (2DAT)",29%
same,LT50 (95% confidence intervals) in days,western flower thrips; isolate O43NEW 1×10^5 cfu/mL,2.72 (2.40-3.08) days
same,LT50 (95% confidence intervals) in days,western flower thrips; isolate O333A4 1×10^5 cfu/mL,2.72 (2.40-3.08) days
same,% Mort. Chem.,"western flower thrips; western flower thrips, 2 DAT (row with O43NEW)",29%
same,% Mort. Chem.,"western flower thrips; western flower thrips, 2 DAT (row with O333A4)",16%
same,LT50 Chem.,"western flower thrips; western flower thrips, Imidacloprid alone 100 mg/L",2.72 days
same,LT50 (95% confidence intervals),Colorado potato beetle [7]; imidacloprid 0.56 mg/L,18.03 days
same,LT50 Chem.,Colorado potato beetle [7]; imidacloprid 0.56 mg/L,18.03 days
same,% Mort. Chem.,Colorado potato beetle [7]; imidacloprid 0.56 mg/L,5%
same,LT50 (95% confidence intervals) in days,"Colorado potato beetle [8]; 4th instar larva, imidacloprid 0.56 mg/L, isolate O43NEW 1×10^7 cfu/mL",20.38 (15.79-27.60) days
same,% Mort. Chem.,"Colorado potato beetle [8]; Imidacloprid 0.56 mg/L, 10 DAT",17%
same,LT50 Chem.,Colorado potato beetle [8]; Imidacloprid alone 0.56 mg/L,20.38 days
same,mortality at 0.56 µg/mL,"Colorado potato beetle [8]; 72 h, read-out: % Mortality (3DAT)",0%
same,mortality at 0.56 µg/mL,"Colorado potato beetle [8]; 240 h, read-out: % Mortality (10DAT)",17%
same,mortality at 0.56 µg/mL,"Colorado potato beetle [8]; 312 h, read-out: % Mortality (13DAT)",7%
